Read-outs that look alike come from different tables or passages of the source.
Columns and labels:
EpiSC-derived OPCs = test: In vitro phenotypic screening of OPCs, MBP high-content imaging; type: cell-based, mouse; conditions: Mus musculus, 72 h, percentage of MBP+ oligodendrocytes; 3 days; 0.5 nM to 1000 nM; read-out: mOPC EC50
Summary of the method: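 Mouse EpiSC-derived OPCs seeded without growth factors and exposed 3 days at 37° C. to 8-point doses, 1000 nM to 0.5 nM final. Fixed cells stained for MBP and DAPI; high-content imaging gave percentage MBP+ oligodendrocytes, with EC50 from Hill-equation fit.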

human EBP = human EBP (Homo sapiens (Human), UniProt Q15125); test: Competition binding assay (SPA) to determine compound affinity to EBP; conditions: read-out: hEBP SPA Ki
Protocol: Membrane preparation: To examine compound binding affinity to EBP, human EBP was overexpressed in human embryonic kidney 293 cells. Cell pellet was lysed in 10 times weight binding buffer (50 mM Tris, 5 mM MgCl2, 0.1 mM EDTA, 1× protease inhibitor cocktail, pH 7.5) on ice by using a dounce homogenizer. The solution was centrifuged at 25,000 g for 50 min at 4° C. The membrane pellet was re-suspended in binding buffer and run through a 25 5/8 gauge needle. After checking the concentration by Bradford assay, the whole cell membrane solution was adjusted to 20 mg/mL and stored at −80° C.
This binding solution was centrifuged at 400 g for 5 minutes to collect the bead/membrane mixture. After re-suspending the pellet in binding buffer at the same calculated volume with 0.01% BSA (Sigma A1933), the bead/membrane mixture was added in 384-well low-binding surface plate (PerkinElmer Cat #6057480) at 25 i/well. Radioligand at different concentrations with and without the non-radio-labeled same ligand 5 uM (for nonspecific and total signal, respectively) was added to bring final volume to 50 i/well with DMSO concentration at 0.1%. At equilibrium (3 hours after ligand addition), radiometric signal CPM was counted by using a Microbeta2 microplate counter (Perkinelmer).
Competition binding assay to determine compound affinity: The same conditions of the radioligand Kd study were used for compound single dose percentage inhibition and equilibrium dissociation constant Ki examinations, except 50 nL compound DMSO stock was pre-added in 384-well low-binding surface plate (PerkinElmer Cat #6057480) by Echo 550 (Labcyte) to reach the final concentration for single dose test at 1 uM, and dose response test from 0.06 nM to 5 uM (8 dose, 5 times dilution). A pre-incubated bead/membrane mixture was added in compound plate at 0.3 mg beads and […] membrane per well. […] At equilibrium (3 hours after ligand addition), radiometric signal was counted as described above. The percentage inhibition of compound at each testing concentration was calculated by normalizing each condition's CPM readout to full block (5 uM non-radiolabeled ligand) and non-block (DMSO) control conditions. Compound binding inhibition IC50 was determined by nonlinear regression fitting of percentage inhibition plot against compound concentration. Compound Ki was calculated from the equation Ki=IC50/(1+[L]/Kd), which [L] was radioligand concentration used in assay. All tests had N bigger or equal to 2.

[1] = radioligand [3H]-Ifenprodil 10 nM, Ki=IC50/(1+[L]/Kd), HEK293 membrane

Sequence of human EBP (Q15125 whole entry): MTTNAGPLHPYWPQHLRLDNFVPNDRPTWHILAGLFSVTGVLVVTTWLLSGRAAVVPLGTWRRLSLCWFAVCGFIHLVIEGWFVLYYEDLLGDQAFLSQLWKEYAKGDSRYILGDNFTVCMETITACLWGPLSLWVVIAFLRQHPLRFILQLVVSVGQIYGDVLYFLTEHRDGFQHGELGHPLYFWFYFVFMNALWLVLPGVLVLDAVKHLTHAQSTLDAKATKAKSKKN

SMILES	EC50 (EpiSC-derived OPCs) [nM]	Ki (human EBP; [1]) [nM]	Ki (human EBP) [nM]
CCC(C)(C)c1ccc(CC(C)CN2CCC3(C2)CS(=O)(=O)C3)cc1 (racemic) [Compound 107, 6-(2-Methyl-3-(4-(tert-pentyl)phenyl)propyl)-2-thia-6-azaspiro[3.4]octane 2,2-dioxide]	22	23	
CC(Cc1ccc(C2CCC2)cc1)CN1CCC2(C1)CS(=O)(=O)C2 (racemic) [Compound 109A, 6-(3-(4-cyclobutylphenyl)-2-methylpropyl)-2-thia-6-azaspiro[3.4]octane 2,2-dioxide]	1.8	32	
COC(Cc1ccc(C(F)(F)F)cc1)CN1CCC2(C1)CS(=O)(=O)C2 (racemic) [Example 143, (S)-6-(2-Methoxy-3-(4-(trifluoromethyl)phenyl)propyl)-2-thia-6-azaspiro[3.4]octane 2,2-dioxide and (R)-6-(2-methoxy-3-(4-(trifluoromethyl)phenyl)propyl)-2-thia-6-azaspiro[3.4]octane 2,2-dioxide]	26	27	
C[C@@H](Cc1ccc(C(F)(F)F)cc1)CN1CCC2(C1)CS(=O)(=O)C2 (single isomer, unassigned) [114A*]	2.4	35	
C[C@H](Cc1ccc(C(F)(F)F)cc1)CN1CCC2(C1)CS(=O)(=O)C2 (single isomer, unassigned) [114B*]	0.72	34	
C[C@@H](Cc1ccc(C(F)(F)F)nc1)CN1CCC2(C1)CS(=O)(=O)C2 (single isomer, unassigned) [118A*]	8.5	26	
C[C@@H](Cc1cnc(C(F)(F)F)nc1)CN1CCC2(CC1)CS(=O)(=O)C2 (single isomer, unassigned) [215A*]	23	21	
C[C@H](Cc1cnc(C(F)(F)F)nc1)CN1CCC2(CC1)CS(=O)(=O)C2 (single isomer, unassigned) [215B*]	51	25	
C[C@@H](CN1CCC2(CC1)CS(=O)(=O)C2)Oc1ccc(F)c(F)c1 (single isomer, unassigned) [221A*]	4.9		10
O=S1(=O)CC2(CCN(CC[C@H](F)c3ccc(C(F)(F)F)cc3)C2)C1 (single isomer, unassigned) [Compound 122B]	2.1	18	
C[C@@H](Cc1ccnc(C(F)(F)F)c1)CN1CCC2(C1)CS(=O)(=O)C2 (single isomer, unassigned) [Compound 126A]	10	30	
C[C@H](Cc1ccnc(C(F)(F)F)c1)CN1CCC2(C1)CS(=O)(=O)C2 (single isomer, unassigned) [Compound 126B]	230	120	
C[C@@H](Cc1ccc(C(F)F)cc1)CN1CCC2(C1)CS(=O)(=O)C2 (single isomer, unassigned) [Compound 128A]	370	56	
CC(C)(CN1CC[C@@]2(CCS(=O)(=O)C2)C1)Oc1ccc(C(F)(F)F)cc1 (single isomer, unassigned) [Compound 141A]	21	44	
CC(C)(CN1CC[C@]2(CCS(=O)(=O)C2)C1)Oc1ccc(C(F)(F)F)cc1 (single isomer, unassigned) [Compound 141B]	480	61	
C[C@@H](Cc1cnc(C(F)(F)F)nc1)CN1CCC2(C1)CS(=O)(=O)C2 (single isomer, unassigned) [Compound 145A]	69	56	
CC(C)(Cc1ccc(C(F)(F)F)nc1)CN1CC[C@@]2(CCS(=O)(=O)C2)C1 (single isomer, unassigned) [Compound 148B]	73	32	
O=S1(=O)CC2(CCN(CCOc3ccc(C(F)(F)F)cc3)C2)C1 [Compound 112, 6-(2-(4-(Trifluoromethyl)phenoxy)ethyl)-2-thia-6-azaspiro[3.4]octane-2,2-dioxide]	33	28	
O=S1(=O)CC2(CCN(CCOc3ccc(C(F)(F)F)nc3)CC2)C1 [Compound 230, 7-(2-((6-(Trifluoromethyl)pyridin-3-yl)oxy)ethyl)-2-thia-7-azaspiro[3.5]nonane 2,2-dioxide]	22	22	
CC(C)(CN1CCC2(C1)CS(=O)(=O)C2)Oc1ccc(C2CCC2)cc1 [Example 129, 6-(2-(4-Cyclobutylphenoxy)-2-methylpropyl)-2-thia-6-azaspiro[3.4]octane-2,2-dioxide]	190	21	
CC(C)(CN1CCC2(C1)CS(=O)(=O)C2)Oc1cccc(C(F)(F)F)c1 [Example 130, 6-(2-Methyl-2-(3-(trifluoromethyl)phenoxy)propyl)-2-thia-6-azaspiro[3.4]octane-2,2-dioxide]	10	16	
CC(C)(CN1CCC2(C1)CS(=O)(=O)C2)Oc1cccc(OC(F)(F)F)c1 [Example 131, 6-(2-Methyl-2-(3-(trifluoromethoxy)phenoxy)propyl)-2-thia-6-azaspiro[3.4]octane 2,2-dioxide]	7.8	31	
CC(C)(CN1CCC2(C1)CS(=O)(=O)C2)Oc1ccc(C(F)(F)F)nc1 [Example 135, 6-(2-Methyl-2-((6-(trifluoromethyl)pyridin-3-yl)oxy)propyl)-2-thia-6-azaspiro[3.4]octane-2,2-dioxide]	140	29	
CC(C)(CN1CCC2(C1)CS(=O)(=O)C2)Oc1ccc(OC(F)(F)F)cc1 [Example 136, 6-(2-Methyl-2-(4-(trifluoromethoxy)phenoxy)propyl)-2-thia-6-azaspiro[3.4]octane 2,2-dioxide]	12	29	
CC(C)(CN1CCC2(CC1)CS(=O)(=O)C2)Oc1ccc(C(F)(F)F)cc1 [Example 138, 7-(2-Methyl-2-(4-(trifluoromethyl)phenoxy)propyl)-2-thia-7-azaspiro[3.5]nonane 2,2-dioxide]	2.3	16	
CC(C)(Cc1ccc(C2CCC(F)(F)CC2)c(Cl)c1)CN1CCC2(C1)CS(=O)(=O)C2 [Example 139, 6-(3-(3-Chloro-4-(4,4-difluorocyclohexyl)phenyl)-2,2-dimethylpropyl)-2-thia-6-azaspiro[3.4]octane 2,2-dioxide]	0.46	30	
CC(C)(Cc1ccc(C(F)(F)F)nc1)CN1CCC2(C1)CS(=O)(=O)C2 [Example 140, 6-(2,2-Dimethyl-3-(6-(trifluoromethyl)pyridin-3-yl)propyl)-2-thia-6-azaspiro[3.4]octane-2,2-dioxide]	5	18	
CC(C)(CN1CCC2(C1)CS(=O)(=O)C2)Oc1cnc(C(F)(F)F)nc1 [Example 144, 6-(2-Methyl-2-((2-(trifluoromethyl)pyrimidin-5-yl)oxy)propyl)-2-thia-6-azaspiro[3.4]octane-2,2-dioxide]	390	53	
O=S1(=O)CC2(CCN(CC3(Cc4ccc(C(F)(F)F)nc4)CC3)C2)C1 [Example 157, 6-((1-((6-(Trifluoromethyl)pyridin-3-yl)methyl)cyclopropyl)methyl)-2-thia-6-azaspiro[3.4]octane 2,2-dioxide]	9.4	25	
O=S1(=O)CCC2(CC1)CN(CCOc1ccc(C(F)(F)F)cc1)C2 [Example 201, 2-(2-(4-(Trifluoromethyl)phenoxy)ethyl)-7-thia-2-azaspiro[3.5]nonane 7,7-dioxide]	5.5	13	

From patent US20240400579A1, “SPIROCYCLIC MODULATORS OF CHOLESTEROL BIOSYNTHESIS AND THEIR USE FOR PROMOTING REMYELINATION” (GENENTECH, INC., priority 2021, published 2024)
